Experimental data as given in article PMC3502614 (Science (New York, N.Y.), 2011).

Molecular target: T1, M. smegmatis RpsA (Mycolicibacterium smegmatis, UniProt A0QYY6)
T1 sequence (A0QYY6 1-479): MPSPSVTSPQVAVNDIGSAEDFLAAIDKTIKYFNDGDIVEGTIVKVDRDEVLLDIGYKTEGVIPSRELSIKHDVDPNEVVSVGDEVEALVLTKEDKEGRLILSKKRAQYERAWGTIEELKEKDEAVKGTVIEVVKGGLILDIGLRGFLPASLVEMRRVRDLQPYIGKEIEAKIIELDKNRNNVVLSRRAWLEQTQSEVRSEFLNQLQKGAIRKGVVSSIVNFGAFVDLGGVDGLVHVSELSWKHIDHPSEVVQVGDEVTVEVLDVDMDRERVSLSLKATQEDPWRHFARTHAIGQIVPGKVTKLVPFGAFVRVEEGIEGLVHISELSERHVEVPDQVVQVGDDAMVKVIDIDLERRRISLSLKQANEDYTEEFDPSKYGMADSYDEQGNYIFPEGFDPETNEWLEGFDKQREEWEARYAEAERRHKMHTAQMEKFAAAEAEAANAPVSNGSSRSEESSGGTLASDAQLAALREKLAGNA
Test: isothermal titration calorimetry
Format: binding

Compound: O=C(O)c1cnccn1 [POA, 2-pyrazinecarboxylic acid]
- weak binding by ITC: RpsA from naturally PZA-resistant M. smegmatis bound to POA only very weakly
